Data from PubChem BioAssay AID1963430 (Molecular Pharmacology Branch, DTP, NCI, 2024).

Tested on: 521955-158-R2-J5-PDC complex spheroid growth, % test/control
Experiment: Anticancer human tumor 521955-158-R2-J5-PDC patient-derived pancreatic carcinoma cell line growth inhibition [Asc]
Conditions: for IC50: curve of first compound; for viability, T/C: stronger effect = lower value
Summary of the method: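 Stromal components (HUVEC and hMSC) are co-assembled with the cancer cells into multicellular spheroids. Drugs are then added singly or paired, at concentrations falling by half-log increments from a clinically achievable maximum, capped at 10 microM without known Cmax.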

[1] = second compound 0.1 µM, first compound 0.0316 µM
[2] = second compound 0.1 µM, first compound 0.1 µM
[3] = second compound 0.1 µM, first compound 0.316 µM
[4] = second compound 0.1 µM, first compound 1 µM
[5] = second compound 0.316 µM, first compound 0.0316 µM
[6] = second compound 0.316 µM, first compound 0.1 µM
[7] = second compound 0.316 µM, first compound 0.316 µM
[8] = second compound 0.316 µM, first compound 1 µM
[9] = second compound 1 µM, first compound 0.0316 µM
[10] = second compound 1 µM, first compound 0.1 µM
[11] = second compound 1 µM, first compound 0.316 µM
[12] = second compound 1 µM, first compound 1 µM
[13] = second compound 3.16 µM, first compound 0.0316 µM
[14] = second compound 3.16 µM, first compound 0.1 µM
[15] = second compound 3.16 µM, first compound 0.316 µM
[16] = second compound 3.16 µM, first compound 1 µM
[17] = second compound 10 µM, first compound 0.0316 µM
[18] = second compound 10 µM, first compound 0.1 µM
[19] = second compound 10 µM, first compound 0.316 µM
[20] = second compound 10 µM, first compound 1 µM
[21] = second compound 0.1 µM, first compound 0.00316 µM
[22] = second compound 0.1 µM, first compound 0.01 µM
[23] = second compound 0.316 µM, first compound 0.00316 µM
[24] = second compound 0.316 µM, first compound 0.01 µM
[25] = second compound 1 µM, first compound 0.00316 µM
[26] = second compound 1 µM, first compound 0.01 µM
[27] = second compound 3.16 µM, first compound 0.00316 µM
[28] = second compound 3.16 µM, first compound 0.01 µM
[29] = second compound 10 µM, first compound 0.00316 µM
[30] = second compound 10 µM, first compound 0.01 µM
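Also: spheroids exposed to agents for 7 days before readout.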
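For viability, T/C in this document: 100% = DMSO vehicle control viability.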

| Structure (SMILES) | IC50 (second compound 0.1 µM) | IC50 (second compound 0.316 µM) | IC50 (second compound 1 µM) | IC50 (second compound 3.16 µM) | IC50 (second compound 10 µM) | viability, T/C [1] | viability, T/C [2] | viability, T/C [3] | viability, T/C [4] | viability, T/C [5] | viability, T/C [6] | viability, T/C [7] | viability, T/C [8] | viability, T/C [9] | viability, T/C [10] | viability, T/C [11] | viability, T/C [13] | viability, T/C [14] | viability, T/C [17] | viability, T/C [18] | further results |
| --- | --- | --- | --- | --- | --- | --- | --- | --- | --- | --- | --- | --- | --- | --- | --- | --- | --- | --- | --- | --- | --- |
| C=CC(=O)N1CCN(c2nc(=O)n(-c3c(C)ccnc3C(C)C)c3nc(-c4c(O)cccc4F)c(F)cc23)C(C)C1 (stereo not given) + Cc1c(S(C)(=O)=O)c(-c2cc(F)cc(N3CCN(c4ccc(NS(=O)(=O)c5ccc(NC(CCN6CCC(C(=O)OCCCP(=O)(O)O)CC6)CSc6ccccc6)c(S(=O)(=O)C(F)(F)F)c5)cc4)CC3)c2)c(-c2ccc(Cl)cc2)n1C(C)C | > 10000 nM | > 10000 nM | > 10000 nM | > 10000 nM | > 10000 nM | 77.7% | 87.5% | 64.9% | 94.5% | 80.6% | 72.2% | 84.8% | 112% | 69.5% | 72.3% | 85.8% | 73.7% | 97.8% | 151% | 176% | viability, T/C (second compound 0.1 µM, first compound 3.16 µM): 107%; viability, T/C (second compound 0.1 µM, first compound 10 µM): 77.5%; viability, T/C (second compound 0.316 µM, first compound 3.16 µM): 111%; viability, T/C (second compound 0.316 µM, first compound 10 µM): 83.7%; viability, T/C [12]: 95.7%; viability, T/C (second compound 1 µM, first compound 3.16 µM): 71.8%; viability, T/C (second compound 1 µM, first compound 10 µM): 81.7%; viability, T/C [15]: 83.5%; viability, T/C [16]: 86.5%; viability, T/C (second compound 3.16 µM, first compound 3.16 µM): 103%; viability, T/C (second compound 3.16 µM, first compound 10 µM): 80.3%; viability, T/C [19]: 167%; viability, T/C [20]: 112%; viability, T/C (second compound 10 µM, first compound 3.16 µM): 123%; viability, T/C (second compound 10 µM, first compound 10 µM): 98.4% |
| COc1c(OCCCN2CCOCC2)ccc2c3n(c(=NC(=O)c4cnc(N)nc4)nc12)CCN3 + Cc1c(S(C)(=O)=O)c(-c2cc(F)cc(N3CCN(c4ccc(NS(=O)(=O)c5ccc(NC(CCN6CCC(C(=O)OCCCP(=O)(O)O)CC6)CSc6ccccc6)c(S(=O)(=O)C(F)(F)F)c5)cc4)CC3)c2)c(-c2ccc(Cl)cc2)n1C(C)C | 8.11 nM | 9.46 nM | < 3.16 nM | < 3.16 nM | 173 nM | 30.2% | 31.4% | 18% | 8.91% | 27.2% | 31.2% | 13.1% | 10.8% | 38.9% | 33.2% | 11% | 39.9% | 32% | 166% | 87.5% | viability, T/C [21]: 58.2%; viability, T/C [22]: 52.3%; viability, T/C [23]: 65.2%; viability, T/C [24]: 53.1%; viability, T/C [25]: 39.3%; viability, T/C [26]: 39.6%; viability, T/C [12]: 3.88%; viability, T/C [27]: 45.4%; viability, T/C [28]: 50.5%; viability, T/C [15]: 14%; viability, T/C [16]: 2.79%; viability, T/C [29]: 189%; viability, T/C [30]: 133%; viability, T/C [19]: 11.1%; viability, T/C [20]: 7% |
| NC1CCC(NC2CC2c2ccccc2)CC1 (stereo not given) + Cc1c(S(C)(=O)=O)c(-c2cc(F)cc(N3CCN(c4ccc(NS(=O)(=O)c5ccc(NC(CCN6CCC(C(=O)OCCCP(=O)(O)O)CC6)CSc6ccccc6)c(S(=O)(=O)C(F)(F)F)c5)cc4)CC3)c2)c(-c2ccc(Cl)cc2)n1C(C)C | 2.46 nM | < 0.316 nM | < 0.316 nM | < 0.316 nM | 22.1 nM | 37.8% | 48.4% | – | – | 46% | 49% | – | – | 39.7% | 34.6% | – | 30.7% | 33.9% | 44.7% | 39.1% | viability, T/C (second compound 0.1 µM, first compound 0.000316 µM): 58%; viability, T/C (second compound 0.1 µM, first compound 0.001 µM): 46.2%; viability, T/C [21]: 56.8%; viability, T/C [22]: 48.5%; viability, T/C (second compound 0.316 µM, first compound 0.000316 µM): 40.8%; viability, T/C (second compound 0.316 µM, first compound 0.001 µM): 36.3%; viability, T/C [23]: 47.8%; viability, T/C [24]: 38.4%; viability, T/C (second compound 1 µM, first compound 0.000316 µM): 27.9%; viability, T/C (second compound 1 µM, first compound 0.001 µM): 33.9%; viability, T/C [25]: 34.6%; viability, T/C [26]: 34.8%; viability, T/C (second compound 3.16 µM, first compound 0.000316 µM): 41.6%; viability, T/C (second compound 3.16 µM, first compound 0.001 µM): 32.8%; viability, T/C [27]: 25.4%; viability, T/C [28]: 26.5%; viability, T/C (second compound 10 µM, first compound 0.000316 µM): 58%; viability, T/C (second compound 10 µM, first compound 0.001 µM): 48.3%; viability, T/C [29]: 31.8%; viability, T/C [30]: 71.6% |
